In PMC11962044, “Experimental and theoretical studies on structural changes in the microtubule affinity-regulating kinase 4 (MARK4) protein induced by N-hetarenes: a new class of therapeutic candidates for Alzheimer’s disease” (Frontiers in Medicine, 2025):
Where two headings read alike, the source gives them in different places.

Columns and labels:
[1] = target: T1, MARK4 (Homo sapiens, UniProt Q96L34); assay: ATPase inhibition assay (Malachite green) with purified MARK4; format: biochemical; conditions: MARK4 5 μM, ATP 200 μM, ligand 0–10 μM, 1 h at 25°C, read-out: IC50 against MARK4
T1 sequence (Q96L34 1-752): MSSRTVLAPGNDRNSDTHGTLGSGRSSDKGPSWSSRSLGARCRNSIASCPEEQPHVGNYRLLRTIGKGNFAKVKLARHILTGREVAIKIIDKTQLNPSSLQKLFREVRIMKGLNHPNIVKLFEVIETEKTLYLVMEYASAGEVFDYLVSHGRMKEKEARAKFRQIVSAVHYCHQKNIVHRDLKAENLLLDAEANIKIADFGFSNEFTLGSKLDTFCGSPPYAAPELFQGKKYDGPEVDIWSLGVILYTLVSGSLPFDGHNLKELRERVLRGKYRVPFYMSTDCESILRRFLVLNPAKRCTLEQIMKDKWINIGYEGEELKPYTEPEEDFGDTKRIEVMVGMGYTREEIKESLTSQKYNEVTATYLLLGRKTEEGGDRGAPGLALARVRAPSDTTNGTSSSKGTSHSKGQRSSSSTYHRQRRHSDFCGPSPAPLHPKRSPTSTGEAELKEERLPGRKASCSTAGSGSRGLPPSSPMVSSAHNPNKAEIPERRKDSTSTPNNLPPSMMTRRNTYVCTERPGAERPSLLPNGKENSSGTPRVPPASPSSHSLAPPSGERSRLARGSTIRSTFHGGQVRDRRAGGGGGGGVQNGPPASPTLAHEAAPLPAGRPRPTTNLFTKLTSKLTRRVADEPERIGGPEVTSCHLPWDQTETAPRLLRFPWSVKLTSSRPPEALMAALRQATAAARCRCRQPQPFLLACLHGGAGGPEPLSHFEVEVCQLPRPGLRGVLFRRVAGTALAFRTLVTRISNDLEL
Experimental: Purified MARK4 was used to conduct ATPase inhibition experiment following the reported method ([18], [30]). The concentration of the purified protein used was 5 μM, the ligand concentration was 0–10 μM and the substrate (ATP) was 200 μM. The ligand concentration was increased gradually against a given concentration of MARK4. The experiment involved combining MARK4 with freshly prepared ATP, resulting in a final reaction mixture volume of 100 μL. This mixture was incubated for 1 h at 25°C. This is followed by the addition of Malachite green solution (200 μL) to quench the reaction. The samples were allowed to incubate at room temperature for color development. Finally, the reaction mixture (100 μL) was filled into 96-well plates and analyzed using a multiscan ELISA reader (λ = 620 nm). All experimental reactions were conducted in triplicate to ensure statistical reliability.

[2] = target: T1, MARK4; assay: Fluorescence quenching binding assay; conditions: modified Stern-Volmer equation; excitation 280 nm; read-out: binding constant (K) (converted)
Experimental: A fluorescence-based binding assay was conducted to evaluate the binding efficiency of ligands. During the titration, the concentration of the pure MARK4 protein was kept constant while increasing concentrations of the ligand ([31]). The emission data were collected using a Jasco FP-6200 spectrofluorimeter (Japan), with a slit width of 10 nm and medium sensitivity. The samples were excited at 280 nm, and the emission spectra were recorded. Blank subtracted spectra are reported, and each measurement was performed in triplicate. For fluorescence values, we took the inner filter effect into account ([32]). The binding constant (K) was calculated using the Stern-Volmer (SV) (Equations 1, 2). (1) F0/F=1+KsvC (2) logF0−F/F=logK+nlogC Where F0 denotes the fluorescence intensity of the protein in the absence of ligands, whereas F indicates the fluorescence intensity when ligands are present. K represents the binding constant, n indicates the number of binding sites, and C refers to the concentration of the ligand.

[3] = target: MARK4 enzyme; conditions: cited from earlier work
[4] = read-out: IC50 MARK4 enzyme in vitro

SMILES | IC50 [1] | other results
N=C(N)N1CCN(c2cc(-c3ccc(OC(F)(F)F)cc3)ncn2)CC1 [Compound 10, 4-(6-(4-(Trifluoromethoxy)phenyl)pyrimidin-4-yl)piperazine-1-carboximidamide] | 7.28 ± 0.49 µM | –
COc1cc2c(cc1OC)C(=O)C(CC1CCN(Cc3ccccc3)CC1)C2 (centres unmarked) [donepezil] | – | IC50 [3, 4]: 5.3 µM
CCN(C)C(=O)Oc1cccc([C@H](C)N(C)C)c1 [rivastigmine] | – | IC50 [3, 4]: 6.74 µM
O=C(/C=C/c1ccc(O)c(O)c1)O[C@H](Cc1ccc(O)c(O)c1)C(=O)O [Rosmarinic acid] | – | IC50 ([3]; reference inhibitor of MARK4, read-out: IC50 of the reference inhibitor): ~6.2 µM

Now from value to compound, other results behind:

IC50 [1] | SMILES | other results
15.8 ± 0.92 µM | N=C(N)N1CCN(c2cc(-c3ccc(C(F)(F)F)cc3)ncn2)CC1 [Compound 8, 4-(6-(4-(Trifluoromethyl)phenyl)pyrimidin-4-yl)piperazine-1-carboximidamide] | –
6.68 ± 0.8 µM | N=C(N)N1CCN(c2cc(-c3cc4ccccc4s3)ncn2)CC1 [Compound 9, 4-(6-(benzo[b]thiophen-2-yl)pyrimidin-4-yl)piperazine-1-carboximidamide] | Kd [2]: 8.77 µM
16.5 ± 1.71 µM | N=C(N)N1CCN(c2cc(-c3ccc(F)c(Cl)c3)ncn2)CC1 [Compound 7, 4-(6-(3-Chloro-4-fluorophenyl)pyrimidin-4-yl)piperazine-1-carboximidamide] | –
5.35 ± 0.22 µM | Cc1ccc(-c2cc(N3CCN(C(=N)N)CC3)ncn2)cc1 [Compound 5, 4-(6-(p-Tolyl)pyrimidin-4-yl)piperazine-1-carboximidamide] | Kd [2]: 6.67 µM
11.8 ± 1.19 µM | N=C(N)N1CCN(c2cc(-c3ccc(Cl)c(Cl)c3)ncn2)CC1 [Compound 6, 4-(6-(3,4-Dichlorophenyl)pyrimidin-4-yl)piperazine-1-carboximidamide] | –
